As a reminder, the IC50 is the concentration that inhibits the measured activity by half. Read a high IC50 as weaker potency in that assay.

Assay [1] has as its target T1, human HIF-PHD2 (Homo sapiens, UniProt Q9GZT9).
T1 construct: purchased CrystalGenomics Ltd
In words: HIF-PHD inhibition assay (fluorescence polarization), human HIF-PHD2. Type of assay: biochemical. To be noted: 2-oxoglutaric acid 3.33 μmol/L. Here is the method:
(§1) The activity of the test compound to inhibit human HIF-PHD2 and human HIF-PHD3 was determined.
(§2) The value of enzyme activity was calculated by subtracting the value of fluorescence polarization before addition of the enzyme from the value of fluorescence polarization after addition of enzyme (mP value).
(§3) FAM: 5′-fluoresceinamide ACA: aminocaproic acid

For assay [2], the target named is T2, human HIF-PHD3 (Homo sapiens, UniProt Q9H6Z9).
T2 construct: purchased CrystalGenomics Ltd
T2 sequence (Q9H6Z9 whole entry): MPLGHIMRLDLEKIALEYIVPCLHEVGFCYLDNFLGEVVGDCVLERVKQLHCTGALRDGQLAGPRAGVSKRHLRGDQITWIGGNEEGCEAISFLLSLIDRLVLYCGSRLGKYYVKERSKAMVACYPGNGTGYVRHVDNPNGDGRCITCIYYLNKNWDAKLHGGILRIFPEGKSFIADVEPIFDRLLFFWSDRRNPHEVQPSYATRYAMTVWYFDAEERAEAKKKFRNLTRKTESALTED
The experiment in a line: HIF-PHD inhibition assay (fluorescence polarization), human HIF-PHD3. Type of assay: biochemical. To be noted: 2-oxoglutaric acid 166 μmol/L. The procedure:
as §1, §2, §3
On the technique in general: In fluorescence polarisation assays a small probe gives low polarisation when free and higher when bound to something large.

Structures are written as SMILES. Where a name gives a salt, the structure may show the parent alone.

T1 sequence (Q9GZT9 2-426 limits assumed): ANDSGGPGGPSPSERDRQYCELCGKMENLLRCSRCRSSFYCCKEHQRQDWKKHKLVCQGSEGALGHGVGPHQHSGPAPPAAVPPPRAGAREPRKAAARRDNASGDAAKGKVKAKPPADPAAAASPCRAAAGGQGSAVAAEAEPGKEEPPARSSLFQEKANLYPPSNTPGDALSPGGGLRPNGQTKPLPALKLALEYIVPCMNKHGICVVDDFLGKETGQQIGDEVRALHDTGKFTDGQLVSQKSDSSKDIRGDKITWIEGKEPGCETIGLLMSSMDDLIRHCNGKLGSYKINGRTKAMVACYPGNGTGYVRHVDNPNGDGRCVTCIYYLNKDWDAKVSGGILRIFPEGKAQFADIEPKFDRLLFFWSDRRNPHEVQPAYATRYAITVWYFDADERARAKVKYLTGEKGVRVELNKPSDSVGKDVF

For `O=C(O)c1cnn(-c2nc(O)c3c(cnn3C(c3cccc(Cl)c3)C3CC3)n2)c1` (single isomer, unassigned) [Example 375], the IC50 in assay [1] came out at 52 nM; in assay [2] it was 500 nM.
Consider `Cc1cc(C(C2CC2)n2ncc3nc(-n4cc(C(=O)O)cn4)nc(O)c32)ccc1F` (single isomer, unassigned) [Example 377], for which the results for the IC50 in assay [1] and in assay [2] were 66 nM and 340 nM, respectively.
On the same counts, the results for `CC1CCCC(n2ncc3nc(-n4cc(C(=O)O)cn4)nc(O)c32)C1` (single isomer, unassigned) [Example 399] are 54 nM and 590 nM.
For `CC1CCCC(n2ncc3nc(-n4cc(C(=O)O)cn4)nc(O)c32)C1` (single isomer, unassigned) [Example 401], in that order: 48 nM and 1200 nM.
On the same counts, the results for `CC1CC(n2ncc3nc(-n4cc(C(=O)O)cn4)nc(O)c32)CC(C)(C)C1` (single isomer, unassigned) [Example 408] are 38 nM and 400 nM.
For the compound `CC1CC(n2ncc3nc(-n4cc(C(=O)O)cn4)nc(O)c32)CC(C)(C)C1` (single isomer, unassigned) [Example 410], the half-maximal inhibitory concentration (IC50) was determined as 42 nM in assay [1] and 430 nM in assay [2].
`CC1(C)CCCC(n2ncc3nc(-n4cc(C(=O)O)cn4)nc(O)c32)C1` (single isomer, unassigned) [Example 412]: the values for the concentration for half-maximal inhibition (IC50) in assay [1] and in assay [2] were 43 nM and 590 nM, respectively.
As for `CCC1CCCC(n2ncc3nc(-n4cc(C(=O)O)cn4)nc(O)c32)C1` (single isomer, unassigned) [Example 414], the IC50 turned out to be 33 nM in assay [1] and 820 nM in assay [2].
On the same counts, the results for `CCC1CCCC(n2ncc3nc(-n4cc(C(=O)O)cn4)nc(O)c32)C1` (single isomer, unassigned) [Example 416] are 18 nM and 530 nM.
For `CC1(C)CCCC1n1ncc2nc(-n3cc(C(=O)O)cn3)nc(O)c21` (single isomer, unassigned) [Example 418], in that order: 83 nM and 910 nM.
On the same counts, the results for `O=C(O)c1cnn(-c2nc(O)c3c(cnn3CC3CCN(Cc4ccc(F)cc4)CC3)n2)c1` [Example 2, 1-(1-{[1-(4-fluorobenzyl)piperidin-4-yl]methyl}-7-hydroxy-1H-pyrazolo[4,3-d]pyrimidin-5-yl)-1H-pyrazole-4-carboxylic acid hydrochloride] are 84 nM and 1100 nM.
In the case of `O=C(O)c1cnn(-c2nc(O)c3c(cnn3Cc3cccc4ccccc34)n2)c1` [Example 28], the IC50 is 35 nM in assay [1] and 360 nM in assay [2].
On the same counts, the results for `Cc1ccc2cc(Cn3ncc4nc(-n5cc(C(=O)O)cn5)nc(O)c43)ccc2c1` [Example 33] are 10 nM and 200 nM.
On the same counts, the results for `CC(C)c1ccccc1-c1ccc(Cn2ncc3nc(-n4cc(C(=O)O)cn4)nc(O)c32)cc1` [Example 59] are 29 nM and 95 nM.
On the same counts, the results for `O=C(O)c1cnn(-c2nc(O)c3c(cnn3Cc3ccc(-c4ccccc4C4CC4)cc3)n2)c1` [Example 60] are 28 nM and 77 nM.
As for `Cc1cc(Cl)ccc1-c1ccc(Cn2ncc3nc(-n4cc(C(=O)O)cn4)nc(O)c32)cc1` [Example 71], the values for the 50% inhibitory concentration (IC50) in assay [1] and in assay [2] were 16 nM and 110 nM, respectively.
On the same counts, the results for `O=C(O)c1cnn(-c2nc(O)c3c(cnn3Cc3ccc(-c4ccc(Cl)cc4Cl)cc3)n2)c1` [Example 72] are 28 nM and 280 nM.
On the same counts, the results for `O=C(O)c1cnn(-c2nc(O)c3c(cnn3Cc3ccc(-c4ccc(C(F)(F)F)cc4Cl)cc3)n2)c1` [Example 73] are 31 nM and 270 nM.
On the same counts, the results for `O=C(O)c1cnn(-c2nc(O)c3c(cnn3Cc3ccc(-c4ccc(Cl)cc4F)cc3)n2)c1` [Example 74] are 20 nM and 72 nM.
For `O=C(O)c1cnn(-c2nc(O)c3c(cnn3Cc3ccc(-c4cccc(Cl)c4Cl)cc3)n2)c1` [Example 75], the IC50 amounted to 20 nM in assay [1] and 120 nM in assay [2].
For `O=C(O)c1cnn(-c2nc(O)c3c(cnn3Cc3ccc(-c4ccc(F)cc4F)cc3F)n2)c1` [Example 82], in that order: 32 nM and 130 nM.
On the same counts, the results for `Cc1cc(-c2ccccc2F)ccc1Cn1ncc2nc(-n3cc(C(=O)O)cn3)nc(O)c21` [Example 88] are 8.6 nM and 44 nM.
On the same counts, the results for `COc1cc(-c2ccccc2F)ccc1Cn1ncc2nc(-n3cc(C(=O)O)cn3)nc(O)c21` [Example 90] are 20 nM and 36 nM.
As for `Cc1cc(Cn2ncc3nc(-n4cc(C(=O)O)cn4)nc(O)c32)ccc1-c1ccccc1` [Example 92], the IC50 in assay [1] was 11 nM; in assay [2] it was 50 nM.
Regarding `O=C(O)c1cnn(-c2nc(O)c3c(cnn3Cc3cc(F)c(-c4ccccc4F)cc3F)n2)c1` [Example 100], the IC50 in assay [1] was determined as 16 nM; in assay [2] it was 89 nM.
Consider `Cc1cc(Cn2ncc3nc(-n4cc(C(=O)O)cn4)nc(O)c32)c(F)cc1-c1ccccc1F` [Example 103], for which the half-inhibitory concentration (IC50) in assay [1] amounted to 18 nM; in assay [2] it was 220 nM.
On the same counts, the results for `CC(C)(Cn1ncc2nc(-n3cc(C(=O)O)cn3)nc(O)c21)c1ccc(Cl)c(Cl)c1` [Example 121] are 210 nM and 610 nM.
For `O=C(O)c1cnn(-c2nc(O)c3c(cnn3CC3(c4ccccc4)CCCC3)n2)c1` [Example 123], in that order: 130 nM and 580 nM.
On the same counts, the results for `O=C(O)c1cnn(-c2nc(O)c3c(cnn3CC(F)(F)c3ccc(Cl)cc3)n2)c1` [Example 125] are 110 nM and 910 nM.
Consider `O=C(O)c1cnn(-c2nc(O)c3c(cnn3CC3CCC(F)(F)CC3)n2)c1` [Example 143], for which the IC50 in assay [1] came out at 15 nM; in assay [2], 1200 nM.
On the same counts, the results for `C[C@H](C1CCCCC1)n1ncc2nc(-n3cc(C(=O)O)cn3)nc(O)c21` [Example 145] are 30 nM and 1700 nM.
On the same counts, the results for `Cc1cccc(OCCCn2ncc3nc(-n4cc(C(=O)O)cn4)nc(O)c32)c1C` [Example 180] are 19 nM and 170 nM.
For `O=C(O)c1cnn(-c2nc(O)c3c(cnn3CCCOc3ccc(Cl)cc3)n2)c1` [Example 184], in that order: 10 nM and 360 nM.
As to `O=C(O)c1cnn(-c2nc(O)c3c(cnn3CCCOc3ccc(C4CCCCC4)cc3)n2)c1` [Example 185], the figures for the half-inhibitory concentration (IC50) in assay [1] and in assay [2] were 15 nM and 330 nM, respectively.
On to `COc1cccc(OCCCn2ncc3nc(-n4cc(C(=O)O)cn4)nc(O)c32)c1` [Example 186], for which the concentration for half-maximal inhibition (IC50) in assay [1] is 20 nM; in assay [2], 430 nM.
For `Cc1c(OCCCn2ncc3nc(-n4cc(C(=O)O)cn4)nc(O)c32)ccc2c1CCCC2` [Example 190], in that order: 14 nM and 260 nM.
On the same counts, the results for `O=C(O)c1cnn(-c2nc(O)c3c(cnn3CCCOc3ccc4c(c3)CCC4)n2)c1` [Example 195] are 22 nM and 460 nM.
As for `CC[C@H]1CC[C@H](Cn2nc(F)c3nc(-n4cc(C(=O)O)cn4)nc(O)c32)CC1` [Example 219], the IC50 in assay [1] was determined as 11 nM; in assay [2], 1400 nM.
On the same counts, the results for `O=C(O)c1cnn(-c2nc(O)c3c(n2)c(Cl)nn3CC2CCCC2)c1` [Example 221] are 44 nM and 670 nM.
On the same counts, the results for `CC(C)(C)[C@H]1CC[C@H](Cn2nc(Cl)c3nc(-n4cc(C(=O)O)cn4)nc(O)c32)CC1` [Example 225] are 22 nM and 150 nM.
On the same counts, the results for `Cc1nn(C2CCCCC2)c2c(O)nc(-n3cc(C(=O)O)cn3)nc12` [Example 227] are 130 nM and 3800 nM.
With `Cc1nn(CC2CCCC2)c2c(O)nc(-n3cc(C(=O)O)cn3)nc12` [Example 229], the figures for the half-inhibitory concentration (IC50) in assay [1] and in assay [2] were 50 nM and 2800 nM, respectively.
On the same counts, the results for `Cc1nn(CCC2CCCCC2)c2c(O)nc(-n3cc(C(=O)O)cn3)nc12` [Example 231] are 21 nM and 470 nM.
On to `CCc1nn(CC2CCCCC2)c2c(O)nc(-n3cc(C(=O)O)cn3)nc12` [Example 232], for which the values for the half-maximal inhibitory concentration (IC50) in assay [1] and in assay [2] were 150 nM and 1400 nM, respectively.
As for `CC(C)c1nn(CC2CCCCC2)c2c(O)nc(-n3cc(C(=O)O)cn3)nc12` [Example 233], the half-inhibitory concentration (IC50) in assay [1] was 120 nM; in assay [2], 2800 nM.
As for `O=C(O)c1cnn(-c2nc(O)c3nn(CC4(COc5ccc6c(c5)CCCC6)CC4)cc3n2)c1` [Example 249], the IC50 is 26 nM in assay [1] and 280 nM in assay [2].
For `C[C@@H](c1ccc(F)c(Cl)c1)n1ncc2nc(-n3cc(C(=O)O)cn3)nc(O)c21` [Example 250], in that order: 49 nM and 180 nM.
With `C[C@@H](c1ccc(F)c(F)c1)n1ncc2nc(-n3cc(C(=O)O)cn3)nc(O)c21` [Example 251], the IC50 in assay [1] amounted to 55 nM; in assay [2], 470 nM.
On the same counts, the results for `C[C@@H](c1ccc(F)cc1Cl)n1ncc2nc(-n3cc(C(=O)O)cn3)nc(O)c21` [Example 252] are 99 nM and 630 nM.
For `C[C@@H](c1cccc(Cl)c1)n1ncc2nc(-n3cc(C(=O)O)cn3)nc(O)c21` [Example 253], in that order: 71 nM and 600 nM.
With `C[C@@H](c1cccc(F)c1)n1ncc2nc(-n3cc(C(=O)O)cn3)nc(O)c21` [Example 254], the 50% inhibitory concentration (IC50) in assay [1] turned out to be 97 nM; in assay [2] it was 510 nM.
`C[C@@H](c1ccc(F)cc1F)n1ncc2nc(-n3cc(C(=O)O)cn3)nc(O)c21` [Example 255]: the IC50 in assay [1] was found to be 64 nM; in assay [2] it was 540 nM.

For the origin of these results see patent US20150239889A1, “PYRAZOLOPYRIMIDINE COMPOUND” (MITSUBISHI TANABE PHARMA CORPORATION, priority 2012, published 2015).
